These results are taken from US20150031668A1, “CHROMAN DERIVATIVES AS TRPM8 INHIBITORS” (AMGEN INC., priority 2013, published 2015).

Molecules are shown by their SMILES. Where a name gives a salt, the structure may show the parent alone.

T1 sequence (Q7Z2W7 whole entry): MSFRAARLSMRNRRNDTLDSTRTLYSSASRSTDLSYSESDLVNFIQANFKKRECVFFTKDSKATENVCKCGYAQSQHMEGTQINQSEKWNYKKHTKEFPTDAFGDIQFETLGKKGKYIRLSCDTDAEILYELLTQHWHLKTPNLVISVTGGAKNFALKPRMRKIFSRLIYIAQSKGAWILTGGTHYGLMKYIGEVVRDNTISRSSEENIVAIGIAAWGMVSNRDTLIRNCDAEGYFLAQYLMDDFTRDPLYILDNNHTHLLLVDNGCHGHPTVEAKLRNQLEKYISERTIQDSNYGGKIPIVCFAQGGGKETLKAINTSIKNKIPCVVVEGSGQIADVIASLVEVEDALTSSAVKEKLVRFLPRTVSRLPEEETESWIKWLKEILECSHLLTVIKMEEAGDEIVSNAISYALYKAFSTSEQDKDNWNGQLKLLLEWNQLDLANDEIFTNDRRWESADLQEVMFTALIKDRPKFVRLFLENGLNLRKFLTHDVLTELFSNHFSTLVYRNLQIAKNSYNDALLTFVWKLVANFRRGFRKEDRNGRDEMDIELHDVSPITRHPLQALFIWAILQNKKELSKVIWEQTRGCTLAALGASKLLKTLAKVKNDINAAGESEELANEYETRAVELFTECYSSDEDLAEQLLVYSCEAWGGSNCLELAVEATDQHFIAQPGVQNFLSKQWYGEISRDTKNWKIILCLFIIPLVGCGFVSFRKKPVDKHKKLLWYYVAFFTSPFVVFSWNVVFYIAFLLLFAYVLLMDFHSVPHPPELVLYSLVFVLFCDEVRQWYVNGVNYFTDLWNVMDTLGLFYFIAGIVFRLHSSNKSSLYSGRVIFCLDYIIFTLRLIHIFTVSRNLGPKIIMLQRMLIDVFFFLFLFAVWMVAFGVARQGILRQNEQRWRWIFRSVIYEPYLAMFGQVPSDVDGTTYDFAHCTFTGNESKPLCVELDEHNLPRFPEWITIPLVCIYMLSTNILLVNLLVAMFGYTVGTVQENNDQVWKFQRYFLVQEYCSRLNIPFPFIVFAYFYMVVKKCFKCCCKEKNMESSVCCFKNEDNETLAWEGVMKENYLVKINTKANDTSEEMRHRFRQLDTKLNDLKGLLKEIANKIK

The assay has as its target T1, human TRPM8 (Homo sapiens, UniProt Q7Z2W7).
T1 construct: expressed in transfected cells; host or cells: Chinese hamster ovary (CHO) cells, T-REx tetracycline-inducible expression system (Invitrogen); co-transfected with pcDNA3.1 aequorin
Briefly: Luminescence readout assay for measuring intracellular calcium (aequorin, CHO cells expressing human TRPM8; icilin, L-menthol or cold activation). Format: cell-based. Particulars: CHO cells expressing human TRPM8, icilin activation (1 μM), aequorin luminescence; read-out: hTRPM8 IC50. The essentials:
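Activation was by 1 μM icilin, 100 μM L-menthol (test compound 2.5 min ahead) or cold buffer below 10° C (compound 1 min ahead). Calcium rise measured as aequorin luminescence in CHO cells with tetracycline-inducible human TRPM8.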
Background: A change in cytosolic calcium serves as a functional read-out for many receptors and channels.
`O=C(N[C@]1(c2ccc(OC(F)(F)F)cc2)CCOc2cccnc21)C1=Cc2ccccc2OC1` [Example 259, (S)-N-(4-(4-(trifluoromethoxy)phenyl)-3,4-dihydro-2H-pyrano[3,2-b]pyridin-4-yl)-2H-chromene-3-carboxamide formate]: the IC50 (usually the concentration needed to halve the response being measured) was 88 nM.

`O=C(N[C@]1(c2ccc(OC(F)(F)F)c(F)c2)CCOc2cccnc21)c1ccc(C(=O)C(F)(F)F)cc1` [Example 160, (S)—N-(4-(3-fluoro-4-(trifluoromethoxy)phenyl)-3,4-dihydro-2H-pyrano[3,2-b]pyridin-4-yl)-4-(2,2,2-trifluoroacetyl)benzamide 2,2,2-trifluoroacetate]: the IC50 worked out at 39 nM.

As for `O=C(O)c1ccc(C(=O)N[C@]2(c3ccc(OC(F)(F)F)cc3F)CCOc3cccnc32)nc1` [Example 312, (S)-6-((4-(2-fluoro-4-(trifluoro-methoxy)phenyl)-3,4-dihydro-2H-pyrano[3,2-b]pyridin-4-yl)carbamoyl) nicotinic acid], the IC50 was 104 nM.

With `CNC(=O)c1cccc(C(=O)N[C@]2(c3ccc(OC(F)(F)F)c(F)c3)CCOc3cccnc32)c1` [Example 309, (S)—N1-(4-(3-fluoro-4-(trifluoromethoxy)phenyl)-3,4-dihydro-2H-pyrano[3,2-b]pyridin-4-yl)-N3-methylisophthalamide], the IC50 was found to be 55 nM.

Consider `Cn1ccc(C(=O)N[C@]2(c3ccc(OC(F)(F)F)cc3)CCOc3cccnc32)n1` [Example 227, (S)-1-methyl-N-(4-(4-(trifluoromethoxy)phenyl)-3,4-dihydro-2H-pyrano[3,2-b]pyridin-4-yl)-1H-pyrazole-3-carboxamide formate], for which the IC50 amounted to 58.7 nM.

For `O=C(N[C@]1(c2ccc(OC(F)(F)F)c(F)c2)CCOc2cccnc21)c1ccc(C(=O)O)c(F)c1` [Example 331, (S)-2-fluoro-4-((4-(3-fluoro-4-(trifluoromethoxy)phenyl)-3,4-dihydro-2H-pyrano[3,2-b]pyridin-4-yl)carbamoyl) benzoic acid], the IC50 stood at 34 nM.

Regarding `O=C(N[C@]1(c2ccc(C(F)(F)F)cc2)CCOc2cccnc21)c1ccc2cccnc2c1` [Example 56, (S)-N-(4-(4-(trifluoromethyl)phenyl)-3,4-dihydro-2H-pyrano[3,2-b]pyridin-4-yl)quinoline-7-carboxamide], the IC50 was 21 nM.

Take `COc1ccc(C(=O)N[C@]2(c3ccc(C(F)(F)F)cc3)CCOc3cccnc32)cn1` [Example 32, (S)-6-methoxy-N-(4-(4-(trifluoromethyl)phenyl)-3,4-dihydro-2H-pyrano[3,2-b]pyridin-4-yl)nicotinamide]: the IC50 is 51 nM.

In the case of `O=C(N[C@]1(c2ccc(OC(F)(F)F)cc2)CCOc2cccnc21)c1ccc(-c2cnco2)cc1` [Example 273, (S)-4-(oxazol-5-yl)-N-(4-(4-(trifluoromethoxy)phenyl)-3,4-dihydro-2H-pyrano[3,2-b]pyridin-4-yl)benzamide formate], the IC50 turned out to be 19 nM.

`O=C(N[C@]1(c2ccc(OC(F)(F)F)c(F)c2)CCOc2cccnc21)c1csc(C(=O)O)n1` [Example 329, (S)-4-((4-(3-fluoro-4-(trifluoro-methoxy)phenyl)-3,4-dihydro-2H-pyrano[3,2-b]pyridin-4-yl)carbamoyl) thiazole-2-carboxylic acid]: the IC50 amounted to 231 nM.

Take `O=C(N[C@]1(c2ccc(OC(F)(F)F)cc2)CCOc2cccnc21)C1Cc2ccccc2N1` (stereo partly drawn) [Example 245, N-((S)-4-(4-(trifluoromethoxy)phenyl)-3,4-dihydro-2H-pyrano[3,2-b]pyridin-4-yl)indoline-2-carboxamide formate]: the IC50 was found to be 254 nM.

Take `O=C(N[C@]1(c2ccc(C(F)(F)F)cc2)CCOc2cccnc21)c1ccc2cn[nH]c2c1` [Example 34, (S)-N-(4-(4-(trifluoromethyl)phenyl)-3,4-dihydro-2H-pyrano[3,2-b]pyridin-4-yl)-1H-indazole-6-carboxamide]: the IC50 amounted to 24 nM.
